Where “and” joins values, the source holds several entries; their conditions need not be identical. Equal values may be shown once. Starred links: 1 amine or outer side, 2 acyl side, 3 side chain; linkers in the order of their positions; H or OH if unused. Positions of bridges follow the written chain, without caps; N, C: chain ends. Non-standard residues stand in square brackets, D forms with d. Residues, ends and D or L forms follow the SMILES beside them. Tyr(3-I) = N[C@@H](Cc1ccc(O)c(I)c1)C(=O)O; X1 = O=C(CC1(S[*:2])CCCCC1)[*:1]; Orn = NCCC[C@H](N)C(=O)O
Key:
[1] = molecular target: T1, human AVPR1a (Homo sapiens, UniProt P37288); experiment: Intact cell saturation binding of 125I-OVTA, human AVPR1a CHO clone
Procedure: (§1) Intact cell saturation binding assays […] Cells were washed four times with 100 μL ice-cold HGH-BSA, solubilized with 100 μL 0.2 N NaOH, and radioactivity quantified with a gamma counter. We also counted aliquots of the used binding medium (i.e., free ^125I-OVTA) to quantify free radioligand CPM directly, eliminating any concerns about differential depletion of ligand due to differential receptor expression levels across species or time. […] Binding affinity for ^125I-OVTA was determined after correcting for non-specific binding by plotting specific bound/free vs. bound using a single-site binding equation (Graphpad Software Inc., La Jolla, CA). […] Binding affinities for ^125I-OVTA at each primate AVPR1a were calculated by subtracting nonspecific binding and then plotting bound ^125I-OVTA vs. free ^125I-OVTA. Because concentrations of ^125I-OVTA were not identical from experiment to experiment, technical replicates within each experiment (n = 3) were normalized and then corrected using the Cheng-Prusoff equation. […] We averaged across technical replicates (n = 3) within each biological replicate and then averaged across the biological replicates (n = 3), normalized the data, and tested for significant differences of best-fit LogEC50 using one-way ANOVA analyses.

[2] = test system: macaque AVPR1a; experiment: Intact cell saturation binding of 125I-OVTA, macaque AVPR1a CHO clone; conditions: intact CHO cells, 3 h on ice
Procedure: as §1

[3] = test system: marmoset AVPR1a; experiment: Intact cell saturation binding of 125I-OVTA, marmoset AVPR1a CHO clone; conditions: intact CHO cells, 3 h on ice
Procedure: as §1

[4] = molecular target: human, marmoset, and macaque AVPR1a; experiment: Saturation binding of 125I-OVTA, summary over the three primate AVPR1a; conditions: range over the three species
Procedure: Intact cell saturation binding assays […] Cells were washed four times with 100 µL ice-cold HGH-BSA, solubilized with 100 µL 0.2 N NaOH, and radioactivity quantified with a gamma counter. We also counted aliquots of the used binding medium (i.e., free ^125I-OVTA) to quantify free radioligand CPM directly, eliminating any concerns about differential depletion of ligand due to differential receptor expression levels across species or time. […] Binding affinity for ^125I-OVTA was determined after correcting for non-specific binding by plotting specific bound/free vs. bound using a single-site binding equation (Graphpad Software Inc., La Jolla, CA).

[5] = molecular target: human, macaque, and marmoset OXTR; set-up: method as in Taylor et al., 2018; conditions: range over the three species; ref Taylor et al., 2018; read-out: Affinity (Kd) of 125I-OVTA at human, macaque, and marmoset OXTR; cited from earlier work
[6] = test system: untransfected CHO cells; experiment: Ca2+ response in untransfected CHO cells; assay type: cell-based, Chinese hamster
[7] = test system: macaque AVPR1a; experiment: Intact cell 125I-OVTA competition binding, CHO cells expressing macaque AVPR1a; conditions: competition with 125I-OVTA in intact CHO cells, 3 h on ice, ± Std. Error, n = 3
Procedure: (§2) Intact cell competition binding assays
(§3) Cells were washed four times with 100 µL ice-cold HGH-BSA, solubilized with 100 µL 0.2 N NaOH, and radioactivity was quantified with a gamma counter. Half-maximal inhibitory concentrations (IC50) were determined by plotting bound ^125I-OVTA vs. competitor concentration. IC50 values were then corrected using the Cheng-Prusoff equation with each receptor’s KD for ^125I-OVTA to produce Ki values for the competing ligands.
(§4) Binding affinities for ^125I-OVTA at each primate AVPR1a were calculated by subtracting nonspecific binding and then plotting bound ^125I-OVTA vs. free ^125I-OVTA. Because concentrations of ^125I-OVTA were not identical from experiment to experiment, technical replicates within each experiment (n = 3) were normalized and then corrected using the Cheng-Prusoff equation. […] Differences in Ca^2+ mobilization potency (EC50) and maximal response to OXT were determined by normalizing OXT-induced (Log M) Ca^2+ responses as a percentage of maximal (100%) AVP-induced Ca^2+ response. […] All best-fit data (Ki, EC50, and Ca^2+ maximal responses) were analyzed using the nonlinear least squares curve-fitting capabilities of GraphPad Prism.

[8] = test system: marmoset AVPR1a; experiment: Intact cell 125I-OVTA competition binding, CHO cells expressing marmoset AVPR1a; conditions: competition with 125I-OVTA in intact CHO cells, 3 h on ice, ± Std. Error, n = 5
Procedure: as §2, §3, §4

[9] = test system: macaque AVPR1a; experiment: Ca2+ mobilization assay, CHO cells expressing macaque AVPR1a; assay type: cell-based
Procedure: (§5) Ca^2+ mobilization assays
as §4, with “. […] . Binding” for “Binding”, “response. We averaged across technical replicates (n = 3) within each biological replicate and then averaged across the biological replicates (n = 3), normalized the data, and tested for significant differences of best-fit LogEC50 using one-way ANOVA analyses.” for “response.”, “.” for “All best-fit data (Ki, EC50, and Ca^2+ maximal responses) were analyzed using the nonlinear least squares curve-fitting capabilities of GraphPad Prism.”

[10] = test system: marmoset AVPR1a; experiment: Ca2+ mobilization assay, CHO cells expressing marmoset AVPR1a; assay type: cell-based
Procedure: as §5
as §4, with “. […] . Binding” for “Binding”, “response. We averaged across technical replicates (n = 3) within each biological replicate and then averaged across the biological replicates (n = 3), normalized the data, and tested for significant differences of best-fit LogEC50 using one-way ANOVA analyses.” for “response.”, “.” for “All best-fit data (Ki, EC50, and Ca^2+ maximal responses) were analyzed using the nonlinear least squares curve-fitting capabilities of GraphPad Prism.”

[11] = molecular target: T1, human AVPR1a; experiment: Ca2+ mobilization assay, CHO cells expressing human AVPR1a; assay type: cell-based; conditions: human AVPR1a in CHO cells; ± Std. Error, n = 6; read-out: Ca^2+ EC50

T1 sequence (P37288 whole entry): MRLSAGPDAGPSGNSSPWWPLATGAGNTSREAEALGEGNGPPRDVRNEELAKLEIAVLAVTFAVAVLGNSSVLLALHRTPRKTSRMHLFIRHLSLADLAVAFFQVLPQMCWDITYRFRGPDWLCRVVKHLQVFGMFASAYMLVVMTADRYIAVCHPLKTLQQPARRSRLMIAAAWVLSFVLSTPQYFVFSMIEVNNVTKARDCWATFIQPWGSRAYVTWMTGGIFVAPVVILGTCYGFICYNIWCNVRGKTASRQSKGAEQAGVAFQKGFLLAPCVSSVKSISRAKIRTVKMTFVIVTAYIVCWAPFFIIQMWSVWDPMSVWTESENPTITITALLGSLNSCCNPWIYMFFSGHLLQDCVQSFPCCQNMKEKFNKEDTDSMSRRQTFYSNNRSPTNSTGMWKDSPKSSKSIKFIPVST

## CC[C@H](C)[C@@H]1NC(=O)[C@H](Cc2ccc(OC)cc2)NC(=O)CC2(CCCCC2)SSC[C@@H](C(=O)N2CCC[C@H]2C(=O)N[C@@H](CCCN)C(=O)N[C@@H](Cc2ccc(O)c(I)c2)C(N)=O)NC(=O)[C@H](CC(N)=O)NC(=O)[C@H]([C@@H](C)O)NC1=O [^125I-OVTA, ^125I-ornithine vasotocin analog] (Y(Me)ITNCP[Orn][Tyr(3-I)]-NH2; linker N-5 via X1; C-terminus assumed)
[1]; human AVPR1a CHO clone, maximal binding of 125I-OVTA
  Bmax: 6.21 fmol/well
[1]; human AVPR1a, saturation binding, intact CHO cells, 3 h on ice
  Kd: 1.17 nM
[2]
  Kd: 0.331 nM
[3]
  Kd: 0.944 nM
[4]
  Kd: 0.331 to 1.17 nM
[5]
  Kd: 0.161 to 0.481 nM

## Lysophosphatidic acid [Lysophosphatidic acid (LPA)]
[6]; 10 mM (so in the source)
  Ca^2+ response: do show a Ca^2+ response

## N=C(N)NCCC[C@H](NC(=O)[C@@H]1CCCN1C(=O)[C@@H]1CSSC[C@H](N)C(=O)N[C@@H](Cc2ccc(O)cc2)C(=O)N[C@@H](Cc2ccccc2)C(=O)N[C@@H](CCC(N)=O)C(=O)N[C@@H](CC(N)=O)C(=O)N1)C(=O)NCC(N)=O [AVP, arginine vasopressin]
[7]
  Ki: 1.2 nM and 1.21 nM
[8]
  Ki: 0.9 nM and 0.86 nM
[9]; macaque AVPR1a in CHO cells, ± Std. Error, n = 3, read-out: Ca^2+ EC50
  EC50: 0.3 nM and 0.31 nM
[9]; macaque AVPR1a, F(2,6) = 0.23, p = 0.80
  Maximal Ca^2+ response, comparison among ligands: equal maximal Ca^2+ responses
[10]; 10 nM AVP alone, marmoset AVPR1a
  Ca^2+ response of AVP alone, % of the maximal Ca^2+ response: approximately 80%
[10]; marmoset AVPR1a in CHO cells, ± Std. Error, n = 3, read-out: Ca^2+ EC50
  EC50: 0.05 ± 0.05 nM
[6]; AVP 100 mM to 0.1 nM (so in the source)
  Ca^2+ response: no Ca^2+ response

## CC[C@H](C)[C@@H]1NC(=O)[C@H](Cc2ccc(O)cc2)NC(=O)[C@@H](N)CSSC[C@@H](C(=O)N2CCC[C@H]2C(=O)N2CCC[C@H]2C(=O)NCC(N)=O)NC(=O)[C@H](CC(N)=O)NC(=O)[C@H](CCC(N)=O)NC1=O [Pro^8-OXT] (H-CYIQNCPPG-NH2; disulfide 1-6)
[11]
  EC50: 36.2 ± 0.25 nM

Reference: paper PMC6820730, “Leu^8 and Pro^8 oxytocin agonism differs across human, macaque, and marmoset vasopressin 1a receptors” (Scientific Reports, 2019)
